Reference: patent US4263294A, “Maytansinoids, pharmaceutical compositions thereof and method of use thereof” (Takeda Chemical Industries, Ltd., priority 1978, dated 1981)
Converted amounts (≈) assume the structure as drawn.

Experiments:
Tetrahymena pyriformis W = assay: Antiprotozoal activity, growth inhibition by serial dilution method; format: cell-based; conditions: 28° C., 44 to 48 hours, pH 7.0, serial dilution method
Method: Antiprotozoal activity of compound (I) was assayed with Tetrahymena pyriformis W as the test organism and a medium composed of 20 g tryptose-peptone (Difco Co.), 1 g yeast extract, 2 g glucose, 1000 ml distilled water, 10 ml 1 M phosphate buffer (pH 7.0) as the assay medium. The microorganism was incubated at 28° C. for 44 to 48 hours and the growth inhibitory activity of compound (I) was assayed by the serial dilution method.

[1] = test system: melanoma B-16 tumor cells; assay: Antitumor activity, life span prolongation in mice with intraperitoneally transplanted melanoma B-16 (NCI protocol 1,300); format: in vivo; conditions: intraperitoneally once daily for 9 consecutive days
Method: Therapeutic tests were carried out in mice according to NCI-protocol 1,300, Cancer Chemother, Reports, Part 3, 1972, Vol. 3, No. 2, in which melanoma B-16 tumor cells had been intraperitoneally transplanted, compound (I) being administered intraperitoneally once daily for 9 consecutive days.

SMILES	MIC (Tetrahymena pyriformis W)	Antitumor activities B-16 (T/C%) ([1]; 100 μg/kg)	Antitumor activities B-16 (T/C%) ([1]; 200 μg/kg)	Antitumor activities B-16 (T/C%) ([1]; 400 μg/kg)	Antitumor activities B-16 (T/C%) ([1]; 50 μg/kg)
COc1cc2cc(c1Cl)N(C)C(=O)CC(OC(=O)Nc1ccccc1)C1(C)OC1C(C)C1CC(O)(NC(=O)O1)C(OC)C=CC=C(C)C2 (centres unmarked) [Maytansinol 3-(N-phenyl)carbamate, maytansinol 3-N-phenylcarbamate]	≥ 8 µg/mL	123%	151%	161%	–
COc1cc2cc(c1Cl)N(C)C(=O)CC(OC(=O)OC(C)C)C1(C)OC1C(C)C1CC(O)(NC(=O)O1)C(OC)C=CC=C(C)C2 (centres unmarked) [Maytansinol 3-isopropylcarbonate, maytansinol 3-isopropylcarbonate]	4 to 8 µg/mL (≈ 6.14 to 12.3 µM)	171%	171%	–	150%
